Measurements taken from patent US9040695B2, “Acid addition salts of risperidone and pharmaceutical compositions thereof” (TORRENT PHARMACEUTICALS LIMITED, priority 2011, dated 2015).

Columns and labels:
[1] = Intrinsic dissolution rate (disc method, HPLC analysis); type: physicochemical; details: phosphate buffer saline, 37° C., 200 rpm; for Intrinsic dissolution rate: 50 mg disc, drug equivalent to risperidone dissolved per unit area per unit time
Protocol: The risperidone hemipamoate of example-1 has intrinsic dissolution rates much less than that compared to risperidone alone as disclosed herein below. The intrinsic dissolution rates were determined by preparing discs of sample (50 mg) and performing dissolution by mounting the sample on shaft of dissolution apparatus with help of disc adaptor. The dissolution was performed in phosphate buffer saline, at 37° C. and rotation of 200 rpm. Samples were withdrawn at regular interval and analyzed by high performance liquid chromatography. The intrinsic dissolution rate was calculated as amount of drug (equivalent to risperidone) dissolved per unit area per unit time.

[2] = pK study in Wistar rats, aqueous suspensions by intramuscular route; type: in vivo, male wistar rats; details: single IM dose, 3.6 mg equivalent risperidone base, aqueous suspension, figure-3
Protocol: A comparative evaluation of pharmacokinetic profile of Risperidone, Rispridone pamoate and Risperidone hemipamoate was carried out in male wistar rats. Aqueous suspension formulations of Risperidone base, Pamoate and hemipamoate salt containing 3.6 mg equivalent risperidone base were administered through intramuscular route. Each group (N=5) was administered a single dose. Blood samples were withdrawn at predefined time interval for measurement of Risperidone and 9-hydroxyrisperidone.

[3] = poorly soluble salt suspended in aqueous vehicle, dogs; cited from earlier work

SMILES: Cc1nc2n(c(=O)c1CCN1CCC(c3noc4cc(F)ccc34)CC1)CCCC2.Cc1nc2n(c(=O)c1CCN1CCC(c3noc4cc(F)ccc34)CC1)CCCC2.O=C(O)c1cc2ccccc2c(Cc2c(O)c(C(=O)O)cc3ccccc23)c1O [Risperidone hemipamoate]
- Intrinsic dissolution rate compared to risperidone alone [1]: much less
- Intrinsic dissolution rate [1]: 0.49 mg/cm^2/h
- Absorption after IM administration [2]: absorbed rapidly
- Exposure duration compared to risperidone pamoate [2]: remains sustained for longer duration
- Plasma level course [2]: sustains for long duration comparatively

SMILES: Cc1nc2n(c(=O)c1CCN1CCC(c3noc4cc(F)ccc34)CC1)CCCC2 [Risperidone pamoate, reference compound]
- Absorption after IM administration [2]: absorbed rapidly
- Plasma level course [2]: falls quickly
- Period of effectiveness [3]: over 2 week

SMILES: Cc1nc2n(c(=O)c1CCN1CCC(c3noc4cc(F)ccc34)CC1)CCCC2 [Risperidone, 3-[2-[4-(6-fluoro-1,2-benzisoxazol-3-yl)-1-piperidinyl]ethyl]-6,7,8,9-tetrahydro-2-methyl-4H-pyrido[1,2-a]pyrimidin-4-one]
- Intrinsic dissolution rate [1]: 1.89 mg/cm^2/h
